Consider 19 compounds from patent publication EP2647628A1, “Substituted tricyclic compounds with activity towards ep1 receptors” (Almirall, S.A., priority 2012, dated 2013).

In the assay the target is T1, human EP1 receptor (Homo sapiens, UniProt P34995).
T1 construct: expressed in transfected cells; host or cells: HEK-293 cell membranes
T1 sequence (P34995 1-402): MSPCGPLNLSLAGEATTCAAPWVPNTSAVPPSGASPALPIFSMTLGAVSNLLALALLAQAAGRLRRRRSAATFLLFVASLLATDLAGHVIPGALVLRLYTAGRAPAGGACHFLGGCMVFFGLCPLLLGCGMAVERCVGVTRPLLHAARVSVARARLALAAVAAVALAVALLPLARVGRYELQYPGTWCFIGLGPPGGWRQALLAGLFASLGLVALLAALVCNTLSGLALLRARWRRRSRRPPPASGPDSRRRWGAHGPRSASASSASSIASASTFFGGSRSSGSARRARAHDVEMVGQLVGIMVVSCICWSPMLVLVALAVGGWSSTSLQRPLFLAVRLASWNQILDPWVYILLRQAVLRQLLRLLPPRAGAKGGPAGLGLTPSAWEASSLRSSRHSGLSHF
In words: Human EP1 receptor radioligand binding assay. Particulars: [3H]-PGE2 (10 nM), transfected HEK-293 cell membranes, pH 6.0, 25 °C, 60 minutes; Ki by Cheng-Prusoff equation. Here is the method: To investigate binding properties of EP1 receptor ligands to human EP1 receptor, transfected HEK-293 cell membranes and [3H]-PGE2 (Perkin Elmer) were used. In 96-well plates the assay was carried out with a total reaction volume of 250 µl, containing 25 µl of membrane suspension (30 µg protein/well), 25 µl of [3H]-PGE2 (10 nM) in either absence or presence of 25 µl of either buffer or PGE2 (10 µM) for total and non-specific binding, respectively. Binding buffer contained 10 mM MES, 1 mM MgCl2 and 1 mM EDTA at pH 6.0. Plates were incubated at 25 °C for 60 minutes. After the incubation period, 200 µl of incubate were transferred to MultiScreen HTS, FB plates (Millipore), filtered and plates were washed 6 times with ice-cold 10 mM MES, 1 mM MgCl2 and 1 mM EDTA at pH 6.0. Filters were dried and counted in a MicroBeta scintillation counter (Perkin-Elmer) using EcoScint liquid scintillation cocktail.
Percentage inhibition was calculated relating compounds activity to the 0% inhibition of the wells incubated with 10 nM [3H]-PGE2 alone (total binding) and 100% inhibition of the wells incubated with 10 nM [3H]-PGE2 plus 10 µM PGE2 (non-specific binding). Competition binding curves were carried out by assaying 6 different concentrations with duplicated points. The inhibition constant (Ki) of each compound was calculated by the Cheng-Prusoff equation: Ki = IC50 /(1+[L]/KD) [formula] where IC50 is the concentration of compound that displaces the binding of radioligand by 50%, [L] is the free concentration of radioligand and KD is the dissociation constant of each radioligand. IC50 values were obtained by fitting the data with non-linear regression using XIFit software (IDBS).
`Cc1ccc2c(c1)[C@@H]1CCC[C@@H]1[C@H](c1ccc(C(=O)O)cc1)N2` (racemic) [EXAMPLE 04, 4-((3aS,4R,9bR)-2,3,3a,4,5,9b-hexahydro-8-methyl-1H-cyclopenta[c]quinolin-4-yl)benzoic acid] gave a Ki of 100 to 500 nM.
To `COc1ccc2c(c1)[C@@H]1CCC[C@@H]1[C@H](c1ccc(C(=O)O)cc1)N2` (racemic) [EXAMPLE 07, 4-((3aS,4R,9bR)-2,3,3a,4,5,9b-hexahydro-8-methoxy-1H-cyclopenta[c]quinolin-4-yl)benzoic acid] belongs less than 100 nM; to `O=C(O)c1ccc([C@@H]2Nc3ccc(Cl)cc3[C@@H]3CCC[C@@H]32)cc1` (single isomer, unassigned) [EXAMPLE 06a], less than 100 nM.
`Cc1ccc2c(c1)[C@@H]1CCC[C@@H]1[C@H](c1ccc(C(=O)O)cc1C)N2` (single isomer, unassigned) [EXAMPLE 37a]: the Ki is less than 100 nM.
To `O=C(O)c1ccc([C@@H]2Nc3ccc(Br)cc3[C@@H]3CCC[C@@H]32)cc1` [EXAMPLE 02, 4-((3aS,4R,9bR)-8-bromo-2,3,3a,4,5,9b-hexahydro-1H cyclopenta[c]quinolin-4-yl)benzoic acid] belongs 100 to 500 nM; to `CCCc1ccc2c(c1)[C@@H]1CCC[C@@H]1[C@H](c1ccc(C(=O)O)cc1)N2` [EXAMPLE 12, 4-((3aS, 4R, 9bR)-2,3,3a, 4,5,9b-hexahydro-8-propyl-1H-cyclopenta[c]quinolin-4-yl)benzoic acid], more than 500 nM; to `CC(C)c1ccc2c(c1)[C@@H]1CCC[C@@H]1[C@H](c1ccc(C(=O)O)cc1)N2` [EXAMPLE 18, 4-((3aS,4R,9bR)-2,3,3a,4,5,9b-hexahydro-8-isopropyl-1H-cyclopenta[c]quinolin-4-yl)benzoic acid], 100 to 500 nM.
Under `N#Cc1ccc2c(c1)[C@@H]1CCC[C@@H]1[C@H](c1ccc(C(=O)O)cc1)N2` [EXAMPLE 19, 4-((3aS,4R,9bR)-8-cyano-2,3,3a,4,5,9b-hexahydro-1H-cyclopenta[c]quinolin-4-yl)benzoic acid] stands more than 500 nM; under `Cc1cc2c(cc1Cl)N[C@@H](c1ccc(C(=O)O)cc1)[C@H]1CCC[C@@H]21` [EXAMPLE 29, 4-((3aS,4R,9bR)-7-chloro-2,3,3a,4,5,9b-hexahydro-8-methyl-1H-cyclopenta[c]quinolin-4-yl)benzoic acid], more than 500 nM; under `Cc1ccc2c(c1)[C@@H]1CCC[C@@H]1[C@H](c1ccc(C(=O)O)cc1)N2C` [EXAMPLE 30, 4-((3aS,4R,9bR)-2,3,3a,4,5,9b-hexahydro-5,8-dimethyl-1H-cyclopenta[c]quinolin-4-yl)benzoic acid], more than 500 nM.
Consider `Cc1ccc2c(c1)[C@@H]1CCC[C@@H]1[C@H](c1ccc(C(=O)O)c(C)c1)N2` [EXAMPLE 36, 4-((3aS, 4R, 9bR)-2,3,3a, 4,5,9b-hexahydro-8-methyl-1H-cyclopenta[c]quinolin-4-yl)-2-methylbenzoic acid], for which the Ki is more than 500 nM.
`Cc1cc(C(=O)O)ccc1[C@@H]1Nc2ccc(C3CC3)cc2[C@@H]2CCC[C@@H]21` [EXAMPLE 43, 4-((3aS, 4R, 9bR)-8-cyclopropyl-2,3,3a, 4,5,9b-hexahydro-1H cyclopenta[c]quinolin-4-yl)-3-methylbenzoic acid] registered a Ki of 100 to 500 nM.
To `Cc1ccc2c(c1)[C@@H]1CCC[C@@H]1[C@H](c1ccc(C(=O)O)cc1Cl)N2` [EXAMPLE 47, 3-chloro-4-((3aS, 4R, 9bR)-2,3,3a, 4,5,9b-hexahydro-8-methyl-1H-cyclopenta[c]quinolin-4-yl)benzoic acid] belongs 100 to 500 nM; to `CCc1cc(C(=O)O)ccc1[C@H]1Nc2ccc(OC)cc2[C@@H]2CCC[C@H]12` [EXAMPLE 55, 3-ethyl-4-((3aS,4S,9bR)-2,3,3a,4,5,9b-hexahydro-8-methoxy-1H-cyclopenta[c]quinolin-4-yl)benzoic acid], 100 to 500 nM; to `Cc1ccc2c(c1)[C@@H]1CCC[C@@H]1[C@@H](c1c(C)cc(C(=O)O)cc1C)N2` [EXAMPLE 56, 4-((3aS,4S,9bR)-2,3,3a,4,5,9b-hexahydro-8-methyl-1H cyclopenta[c]quinolin-4-yl)-3,5-dimethylbenzoic acid], less than 100 nM.
Under `COc1ccc2c(c1)[C@@H]1CCC[C@@H]1[C@@H](c1c(C)cc(C(=O)O)cc1C)N2` [EXAMPLE 57, 4-((3aS,4S,9bR)-2,3,3a,4,5,9b-hexahydro-8-methoxy-1H-cyclopenta[c]quinolin-4-yl)-3,5-dimethylbenzoic acid] stands less than 100 nM.
Under `Cc1ccc2c(c1)[C@@H]1CCC[C@@H]1[C@H](c1cc(C(=O)O)nn1C)N2` [EXAMPLE 62, 5-((3aS,4R,9bR)-2,3,3a,4,5,9b-hexahydro-8-methyl-1H-cyclopenta[c]quinolin-4-yl)-1-methyl-1H-pyrazole-3-carboxylic acid] stands more than 500 nM; under `COc1ccc2c(c1)[C@]1(C)CCC[C@@H]1[C@H](c1ccc(C(=O)O)cc1)N2` [EXAMPLE 69, 4-((3aS,4R,9bR)-2,3,3a,4,5,9b-hexahydro-8-methoxy-9b-methyl-1H-cyclopenta[c]quinolin-4-yl)benzoic acid], 100 to 500 nM; under `Cc1ccc2c(c1)[C@]1(C)CCC[C@@H]1[C@H](c1ccc(C(=O)O)cc1C)N2` [EXAMPLE 75, 4-((3aS, 4R, 9bR)-2,3,3a, 4,5,9b-hexahydro-8,9b-dimethyl-1H-cyclopenta[c]quinolin-4-yl)-3-methylbenzoic acid], 100 to 500 nM.
